Values joined by “and” are separate entries in the source; they are usually repeats but may differ in a detail not shown here. Identical values can stand only once.
Conditions: transient hot wire

O=C(C(F)(F)C(F)(F)F)C(F)(C(F)(F)F)C(F)(F)F [dodecafluoro-2-methylpentan-3-one]
Conditions | thermal conductivity
302.17 K, 68802 kPa, Liquid | 0.07801 W/m/K
302.17 K, 68805 kPa, Liquid | 0.07819 W/m/K
302.18 K, 185 kPa, Liquid | 0.05684 W/m/K
302.19 K, 184 kPa, Liquid | 0.05683 W/m/K
302.19 K, 38646 kPa, Liquid | 0.07042 W/m/K
302.19 K, 38653 kPa, Liquid | 0.07047 W/m/K
302.2 K, 4505 kPa, Liquid | 0.05895 W/m/K
302.2 K, 4509 kPa, Liquid | 0.05896 W/m/K
302.2 K, 22376 kPa, Liquid | 0.06575 W/m/K
302.2 K, 22378 kPa, Liquid | 0.06574 W/m/K
302.21 K, 181 kPa, Liquid | 0.05683 W/m/K and 0.05685 W/m/K
302.21 K, 9730 kPa, Liquid | 0.06078 W/m/K
302.21 K, 9731 kPa, Liquid | 0.06057 W/m/K
302.22 K, 29975 kPa, Liquid | 0.06769 W/m/K and 0.06766 W/m/K
302.23 K, 38 kPa, Gas | 0.01171 W/m/K
302.24 K, 34 kPa, Gas | 0.01182 W/m/K
302.24 K, 36 kPa, Gas | 0.01189 W/m/K
302.25 K, 34 kPa, Gas | 0.01189 W/m/K
302.26 K, 4429 kPa, Liquid | 0.05855 W/m/K
302.26 K, 4432 kPa, Liquid | 0.05857 W/m/K
302.26 K, 15648 kPa, Liquid | 0.06339 W/m/K
302.26 K, 22430 kPa, Liquid | 0.06528 W/m/K
302.27 K, 15647 kPa, Liquid | 0.06339 W/m/K
302.27 K, 22437 kPa, Liquid | 0.06518 W/m/K
302.29 K, 121 kPa, Liquid | 0.05692 W/m/K
302.3 K, 121 kPa, Liquid | 0.057 W/m/K
302.31 K, 92 kPa, Liquid | 0.05649 W/m/K
302.31 K, 97 kPa, Liquid | 0.05641 W/m/K
302.35 K, 9934 kPa, Liquid | 0.0612 W/m/K
302.35 K, 9940 kPa, Liquid | 0.06118 W/m/K
302.46 K, 4504 kPa, Liquid | 0.05889 W/m/K
302.47 K, 4505 kPa, Liquid | 0.05889 W/m/K
302.48 K, 184 kPa, Liquid | 0.05681 W/m/K
302.49 K, 184 kPa, Liquid | 0.05679 W/m/K
302.5 K, 181 kPa, Liquid | 0.05679 W/m/K and 0.05678 W/m/K
302.52 K, 15868 kPa, Liquid | 0.06291 W/m/K
302.53 K, 15872 kPa, Liquid | 0.06281 W/m/K
302.54 K, 68548 kPa, Liquid | 0.07804 W/m/K
302.54 K, 68549 kPa, Liquid | 0.07799 W/m/K
302.57 K, 121 kPa, Liquid | 0.05687 W/m/K and 0.05695 W/m/K
302.58 K, 58446 kPa, Liquid | 0.0756 W/m/K
302.59 K, 58445 kPa, Liquid | 0.07563 W/m/K
302.6 K, 34 kPa, Gas | 0.01198 W/m/K
302.61 K, 36 kPa, Gas | 0.01183 W/m/K
302.61 K, 38 kPa, Gas | 0.01193 W/m/K
302.61 K, 68790 kPa, Liquid | 0.07804 W/m/K
302.61 K, 68801 kPa, Liquid | 0.07795 W/m/K
302.63 K, 48154 kPa, Liquid | 0.07294 W/m/K
302.63 K, 48162 kPa, Liquid | 0.07285 W/m/K
302.65 K, 15984 kPa, Liquid | 0.06295 W/m/K
302.65 K, 15986 kPa, Liquid | 0.06304 W/m/K
302.68 K, 38648 kPa, Liquid | 0.07035 W/m/K
302.69 K, 38638 kPa, Liquid | 0.07035 W/m/K
302.72 K, 9724 kPa, Liquid | 0.06082 W/m/K
302.72 K, 9726 kPa, Liquid | 0.06095 W/m/K
302.73 K, 29973 kPa, Liquid | 0.06771 W/m/K
302.74 K, 29982 kPa, Liquid | 0.06772 W/m/K
302.78 K, 4430 kPa, Liquid | 0.0586 W/m/K
302.79 K, 4428 kPa, Liquid | 0.05856 W/m/K
302.79 K, 22448 kPa, Liquid | 0.06525 W/m/K
302.8 K, 22443 kPa, Liquid | 0.06527 W/m/K
302.85 K, 95 kPa, Liquid | 0.05658 W/m/K
302.86 K, 96 kPa, Liquid | 0.05645 W/m/K
303.01 K, 36 kPa, Gas | 0.01199 W/m/K
303.02 K, 38 kPa, Gas | 0.01194 W/m/K
303.03 K, 35 kPa, Gas | 0.01196 W/m/K
303.04 K, 68537 kPa, Liquid | 0.07796 W/m/K
303.04 K, 68564 kPa, Liquid | 0.07806 W/m/K
303.07 K, 15868 kPa, Liquid | 0.06292 W/m/K
303.07 K, 15869 kPa, Liquid | 0.06282 W/m/K
303.1 K, 58422 kPa, Liquid | 0.07541 W/m/K
303.1 K, 58439 kPa, Liquid | 0.07546 W/m/K
303.11 K, 68765 kPa, Liquid | 0.07805 W/m/K
303.11 K, 68772 kPa, Liquid | 0.07794 W/m/K
303.16 K, 48157 kPa, Liquid | 0.07292 W/m/K
303.17 K, 48152 kPa, Liquid | 0.07285 W/m/K
303.2 K, 15974 kPa, Liquid | 0.06276 W/m/K
303.2 K, 15979 kPa, Liquid | 0.06281 W/m/K
303.22 K, 38643 kPa, Liquid | 0.07047 W/m/K
303.23 K, 38644 kPa, Liquid | 0.0705 W/m/K
303.29 K, 9716 kPa, Liquid | 0.06072 W/m/K
303.29 K, 9741 kPa, Liquid | 0.06069 W/m/K
303.3 K, 29978 kPa, Liquid | 0.06778 W/m/K
303.3 K, 29993 kPa, Liquid | 0.06773 W/m/K

Source: the NIST ThermoML archive (doi:10.1021/acs.jced.8b00132)
